The conditions of data set [1]: background statement on known salts; cited from earlier work.
For data set [2] the following is noted: background statement; cited from earlier work.
Data set [3] in a line: equilibration between free acid form and lactone form when dissolved in water. It counts as physicochemical.

As to `O=C([O-])C[C@@](O)(C(=O)[O-])[C@H](O)C(=O)[O-].O=C([O-])C[C@@](O)(C(=O)[O-])[C@H](O)C(=O)[O-].[Ca+2].[Ca+2].[Ca+2]` [calcium salt, calcium salt of hydroxycitric acid], in data set [1], the solubility in water result is on record as “poorly soluble in water”.

As for `O=C([O-])C[C@@](O)(C(=O)[O-])[C@H](O)C(=O)[O-].[K+].[K+].[K+]` [tripotassium salt], the hygroscopicity entry in data set [2] is reported as “highly hygroscopic”.

For “calcium/potassium double salt of hydroxycitric acid [Ca/K double salt]”, in data set [3], the “equilibration between free form and lactone form of hydroxycitric acid” value was “does not equilibrate between the free form and the lactone form”.
